Holding throughout (assay type): cell-based
Assay [1] has as its system HIV-1 reporter virus, Q148H/G140S (QHGS) integrase. In words: Luciferase reporter virus infectivity assay in 293T cells. The settings on record: Human immunodeficiency virus 1, HEK-293T, 48 h, read-out: Luciferase assay EC50, QHGS. An excerpt: (§1) Infectivity assays using reporter viruses derived from lentiviral vectors capable of a single round of infection were used to determine the activity (EC50) of compounds. The DNA used to generate viruses for infection was the full-length HIV-1 genome which had been envelope-deleted. In addition, a reporter gene (the firefly luciferase gene from Photinus pyralis) was cloned into the nef region of the HIV backbone for ease of assay readout. […]. Culture supernatants containing VSV-G pseudotyped virions were harvested 64 h post transfection, clarified by centrifugation to remove cell debris, and frozen at −70° C. until use.
(§2) HIV integrase was mutated within a shuttle vector (pGEM) containing the majority of the HIV-1 gag and pol sequence using site-directed mutagenesis to generate sequences that are known to confer resistance to published integrase inhibitors. These include but are not limited to mutations such as Q148H/G140S (in table #QHGS), N155H/E92Q (in table #NHEQ), F121Y/T124K (in table FYTK), Y143R (in table #Y143R) and the triple mutant Q148K/G140A/E138A. (in table#QKGAEA). The mutated integrase coding region within the shuttle vector was sequence verified, and then exchanged for the wild-type (WT) coding sequence in the reporter virus DNA backbone.
(§3) 293T cells were plated out at 12000 cells per well in CellView 96-well cell culture plates (Invitrogen) 16 h prior to compound addition. Compounds were preincubated with cells for 4 h at 37° C. prior to the addition of virus sufficient to generate approximately 10000 Luciferase light units (as measured by the Victor Wallace luminometer) upon assaying using the Bright-Glo™ reagent (Promega) according to the manufacturer's instructions at 48 h post infection.
Background: Reporter assays use an easily measured gene product as a stand-in for the process of interest.

In assay [2] the test system is HIV-1 reporter virus, wild-type (WT) integrase. The description is as above. As to conditions: Human immunodeficiency virus 1, HEK-293T, 48 h, read-out: Luciferase assay EC50, WT.
Source text: as §1, §2, §3

Assay [3] concerns HIV-1 reporter virus, N155H/E92Q (NHEQ) integrase. Described as above. As to conditions: Human immunodeficiency virus 1, HEK-293T, 48 h, read-out: Luciferase assay EC50, NHEQ.
Source text: as §1, §2, §3

Assay [4] relates to HIV-1 reporter virus, Y143R integrase. The description is as above. The settings on record: Human immunodeficiency virus 1, HEK-293T, 48 h, read-out: Luciferase assay EC50, Y143R.
Source text: as §1, §2, §3

The subject of assay [5] is HIV-1 reporter virus, Q148K/G140A/E138A (QKGAEA) integrase. The assay is described as above. As to conditions: Human immunodeficiency virus 1, HEK-293T, 48 h, read-out: Luciferase assay EC50, QKGAEA.
Source text: as §1, §2, §3

Assay [6] relates to HIV WT integrase. In words: PhenoScreen (Phenosense) assay, single-round luciferase pseudotyped HIV. As to conditions: Human immunodeficiency virus 1, read-out: Activity, Phenosense assay, WT. An excerpt:
(§4) Monogram Bioscience' PhenoScreen assay allows the evaluation of integrase inhibitors for activity against a variety of HIV variants. The assay uses virus generated from 2 DNA constructs; one containing the HIV LTR, gag and pol regions, as well as a luciferase reporter gene in place of the viral envelope genes, and a second DNA construct containing the amphotrophic murine leukemia virus (A-MLV) envelope gene required to pseudotype virions and render them capable of entry into a target cell. Viruses generated using these constructs by transfection into a producer cell line such as 293T are capable of one-round of infection only. Successful integration events are directly proportional to the levels of luciferase expression 48 h after infection.
(§5) The viral variants chosen by the present inventors to screen integration inhibitors consist of mutations within the viral integrase enzyme known to confer resistance to a number of known integration inhibitors published in the literature. In particular, the viral variants containing the Q148H/G140S double mutation in integrase, and the N155H/E92Q double mutation in integrase, represent two of the more common viruses identified to arise in patients that are failing treatment with Isentress (Raltegravir, MK-0518).

Assay [7] deals with HIV variant E92Q/N155H integrase. The assay is described as above. As to conditions: Human immunodeficiency virus 1, read-out: Activity, Phenosense assay, E92Q/N155H.
Source text: as §4, §5

The subject of assay [8] is HIV variant G140S/Q148H integrase. The description is as above. The settings on record: Human immunodeficiency virus 1, read-out: Activity, Phenosense assay, G140S Q148H.
Source text: as §4, §5

EC50 data for 16 molecules are collected here from patent publication US8563562B2, “Compounds having antiviral properties” (priority 2008, dated 2013).

As for `O=C1CCCN1c1cc(N2CCOCC2)cn2c(=O)c(O)c(-c3ncc(Cc4ccc(F)cc4)[nH]3)nc12` [Example 83, 5-(4-fluorobenzyl)-2-(3-hydroxy-7-morpholino-4-oxo-9-(2-oxopyrrolidin-1-yl)-4H-pyrido[1,2-a]pyrimidin-2-yl)-1H-imidazol-3-ium chloride], the EC50 in assay [1] was in the range of 100 to 1000 nM.

Regarding `CN1CCN(c2cc(N(C)C)cn3c(=O)c(O)c(-c4ncc(Cc5ccc(F)cc5)[nH]4)nc23)C1=O` [Example 72, 2-(7-(dimethylamino)-3-hydroxy-9-(3-methyl-2-oxoimidazolidin-1-yl)-4-oxo-4H-pyrido[1,2-a]pyrimidin-2-yl)-5-(4-fluorobenzyl)-1H-imidazol-3-ium chloride], the EC50 in assay [1] is 100 to 1000 nM.

As for `O=c1c(O)c(-c2ncc(Cc3ccc(Cl)c(Cl)c3)s2)nc2c(N3CCCS3(=O)=O)cc(N3CCOCC3)cn12` [Example 108, 2-[5-(3,4-Dichloro-benzyl)-thiazol-2-yl]-9-(1,1-dioxo-116-isothiazolidin-2-yl)-3-hydroxy-7-morpholin-4-yl-pyrido[1,2-a]pyrimidin-4-one], the EC50 in assay [1] lay within 100 to 1000 nM; in assay [2], 1 to 100 nM.

Turning to `CN1CCN(c2cc(N3CCOCC3)cn3c(=O)c(O)c(-c4ncc(Cc5ccc(F)cc5)[nH]4)nc23)C1=O` [Example 109, 5-(4-Fluoro-benzyl)-2-[3-hydroxy-9-(3-methyl-2-oxo-imidazolidin-1-yl)-7-morpholin-4-yl-4-oxo-4H-pyrido[1,2-a]pyrimidin-2-yl]-1H-imidazol-1-ium; chloride], the EC50 in assay [1] lay within 100 to 1000 nM; in assay [3] it was 100 to 1000 nM; in assay [2], 1 to 100 nM.

As for `CN1CCN(c2cc(N3CCOCC3)cn3c(=O)c(O)c(-c4ncc(Cc5ccc(F)c(F)c5)[nH]4)nc23)C1=O` [Example 79, 5-(3,4-difluorobenzyl)-2-(3-hydroxy-9-(3-methyl-2-oxoimidazolidin-1-yl)-7-morpholino-4-oxo-4H-pyrido[1,2-a]pyrimidin-2-yl)-1H-imidazol-3-ium chloride], the EC50 in assay [1] was in the range of 100 to 1000 nM; in assay [3], 1 to 100 nM; in assay [2], 1 to 100 nM.

For the molecule `O=c1c(O)c(-c2ncc(Cc3ccc(F)cc3)[nH]2)nc2c(Br)cc(N3CCOCC3)cn12` [Example 47, 2-(9-Bromo-3-hydroxy-7-morpholin-4-yl-4-oxo-4H-pyrido[1,2-a]pyrimidin-2-yl)-5-(4-fluoro-benzyl)-1H-imidazol-1-ium chloride], in assay [1], the EC50 was 100 to 1000 nM.

As to `O=C1CCCN1c1cc(N2CCOCC2)cn2c(=O)c(O)c(-c3ncc(Cc4ccc(F)cc4)s3)nc12` [Example 97, 2-[5-(4-Fluoro-benzyl)-thiazol-2-yl]-3-hydroxy-7-morpholin-4-yl-9-(2-oxo-pyrrolidin-1-yl)-pyrido[1,2-a]pyrimidin-4-one], the EC50 in assay [1] lay within 100 to 1000 nM.

Take `O=C1OCCN1c1cc(N2CCOCC2)cn2c(=O)c(O)c(-c3ncc(Cc4ccc(F)cc4)[nH]3)nc12` [Example 87, 5-(4-fluorobenzyl)-2-(3-hydroxy-7-morpholino-4-oxo-9-(2-oxooxazolidin-3-yl)-4H-pyrido[1,2-a]pyrimidin-2-yl)-1H-imidazol-3-ium chloride]: the EC50 in assay [1] fell in the range of 100 to 1000 nM.

Consider `CN(c1cc(N2CCOCC2)cn2c(=O)c(O)c(-c3ncc(Cc4ccc(F)cc4)[nH]3)nc12)S(C)(=O)=O` [Example 95, 5-(4-fluorobenzyl)-2-(3-hydroxy-9-(N-methylmethylsulfonamido)-7-morpholino-4-oxo-4H-pyrido[1,2-a]pyrimidin-2-yl)-1H-imidazol-3-ium chloride], for which the EC50 fell in the range of 100 to 1000 nM in assay [1], 1 to 100 nM in assay [3] and 1 to 100 nM in assay [2].

Regarding `CN1CCN(c2cc(N3CCOCC3)cn3c(=O)c(O)c(-c4ncc(Cc5ccc(F)cc5)[nH]4)nc23)S1(=O)=O` [Example 91, 4-(4-Fluoro-benzyl)-2-[3-hydroxy-9-(5-methyl-1,1-dioxo-116-[1,2,5]thiadiazolidin-2-yl)-7-morpholin-4-yl-4-oxo-4H-pyrido[1,2-a]pyrimidin-2-yl]-3H-imidazol-1-ium; chloride], the EC50 in assay [1], in assay [3] and in assay [2] was 1 to 100 nM in each case.

In the case of `CC(C)N1CCN(c2cc(N3CCOCC3)cn3c(=O)c(O)c(-c4ncc(Cc5ccc(F)cc5)s4)nc23)C1=O` [Example 56, 2-[5-(4-Fluoro-benzyl)-thiazol-2-yl]-3-hydroxy-9-(3-isopropyl-2-oxo-imidazolidin-1-yl)-7-morpholin-4-yl-pyrido[1,2-a]pyrimidin-4-one], the EC50 in assay [4], in assay [1], in assay [3], in assay [5] and in assay [2] was 1 to 100 nM throughout.

In the case of `CN1CCN(c2cc(N(C)C)cn3c(=O)c(O)c(-c4ncc(Cc5ccc(F)cc5)s4)nc23)C1=O` [Example 70, 7-Dimethylamino-2-[5-(4-fluoro-benzyl)-thiazol-2-yl]-3-hydroxy-9-(3-methyl-2-oxo-imidazolidin-1-yl)-pyrido[1,2-a]pyrimidin-4-one], the EC50 in assay [1], in assay [3] and in assay [2] was 1 to 100 nM throughout.

As to `O=C(NCc1ccc(Cl)c(Cl)c1)c1nc2ccc(N3CCOCC3)cn2c(=O)c1O` [Comparative example 1, reference compound], the EC50 is 1 to 100 nM in assay [6], > 10000 nM in assay [7] and > 10000 nM in assay [8].

Consider `CC(=O)c1cc(N2CCOCC2)cn2c(=O)c(O)c(-c3ncc(Cc4ccc(F)cc4)s3)nc12` [Example 53, 9-Acetyl-2-[5-(4-fluoro-benzyl)-thiazol-2-yl]-3-hydroxy-7-morpholin-4-yl-pyrido[1,2-a]pyrimidin-4-one], for which the EC50 in assay [1] is 100 to 1000 nM.

With `CN1CCN(c2cc(N3CCOCC3)cn3c(=O)c(O)c(-c4ncc(Cc5ccc(F)c(Cl)c5)s4)nc23)C1=O` [Example 60, 2-[5-(3-Chloro-4-fluoro-benzyl)-thiazol-2-yl]-3-hydroxy-9-(3-methyl-2-oxo-imidazolidin-1-yl)-7-morpholin-4-yl-pyrido[1,2-a]pyrimidin-4-one], the EC50 in assay [4], in assay [1], in assay [3], in assay [5] and in assay [2] was 1 to 100 nM throughout.

With `CN1CCN(c2cc(N3CCOCC3)cn3c(=O)c(O)c(-c4ncc(Cc5ccc(F)c(Cl)c5)[nH]4)nc23)C1=O` [Example 77, 5-(3-chloro-4-fluorobenzyl)-2-(3-hydroxy-9-(3-methyl-2-oxoimidazolidin-1-yl)-7-morpholino-4-oxo-4H-pyrido[1,2-a]pyrimidin-2-yl)-1H-imidazol-3-ium chloride], the EC50 in assay [1] fell in the range of 100 to 1000 nM; in assay [3], 1 to 100 nM; in assay [2] it was 1 to 100 nM.
